Data from patent publication US6613761B1, “Benzoxazepine compounds, their production and use” (Takeda Chemical Industries, Ltd., priority 1995, dated 2003).

Tests used:
squalene synthetase = molecular target: T1, squalene synthetase (Homo sapiens, UniProt P37268); assay: Squalene synthetase inhibitory activity (human-derived enzyme prepared from HepG2 cells); assay type: biochemical; details: [1-3H] farnesyl pyrophosphate, 37° C., 45 minutes, read-out: Inhibitory Activity (IC50, 10^−9 M)
T1 construct: This suspension was used as the enzyme solution; endogenous in cells; host or cells: HepG2 human hepatic carcinoma cells; membrane fraction (105000×g sediment) of the sonicate
T1 sequence (P37268 1-417): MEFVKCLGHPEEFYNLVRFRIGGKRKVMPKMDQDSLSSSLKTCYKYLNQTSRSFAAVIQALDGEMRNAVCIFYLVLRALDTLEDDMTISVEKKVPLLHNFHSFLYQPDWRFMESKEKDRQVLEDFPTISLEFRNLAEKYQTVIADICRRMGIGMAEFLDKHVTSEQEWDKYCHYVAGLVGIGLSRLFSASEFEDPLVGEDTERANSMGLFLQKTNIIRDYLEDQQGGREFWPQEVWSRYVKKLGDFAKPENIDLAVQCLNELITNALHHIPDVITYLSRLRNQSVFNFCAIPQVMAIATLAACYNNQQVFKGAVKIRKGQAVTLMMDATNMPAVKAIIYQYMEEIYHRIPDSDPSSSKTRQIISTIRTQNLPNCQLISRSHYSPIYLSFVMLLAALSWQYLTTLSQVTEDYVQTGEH
Experimental: The squalene synthetase inhibitory activity was assayed as follows with the enzyme solutions prepared in accordance with the method described below.
More specifically, an enzyme solution (protein content 0.8 μg) prepared in accordance with the method described below was added to a solution (total volume 50 μl)) containing 5 μM [1-^3H] farnesyl pyrophosphate (specific activity 25 μCi/mole), 1 mM NADPH (nicotinamide adenine dinucleotide phosphate of reduced type), 5 mM MgCl2, 6 mM glutathione, a 100 mM buffer solution of potassium phosphate (pH 7.4) and a test drug (used as an aqueous solution or a DMSO solution), then the reaction was allowed to proceed at 37° C. for 45 minutes. To the reaction mixture was added 150 μl of a mixture of chloroform and methanol (1:2) to suspend the reaction, followed by adding 50 Al of chloroform and 50 μl of a 3N solution of sodium hydroxide. 50 μl of the chloroform layer (lower layer) containing the reaction mixture having squalene as the principal component and 3 ml of toluene-based liquid scintillator were mixed, and its radioactivity was determined by means of a liquid scintillation counter.
The squalene synthetase inhibitory activity was expressed in terms of the concentration inhibiting by 50% the radioactivity taken into the chloroform layer (IC50, molar concentration (M)), as shown in Table 7. Preparation of human-derived enzyme
Human hepatic carcinoma cells HepG2 (about 1×10^9 cells) obtained by incubation on a Dulbecco-modified Eagle's medium (37° C. in the presence of 5% CO2) containing 10% fetal bovine serum were suspended in 10 ml of an ice-cooled buffer solution (100 mM potassium phosphate buffer (pH 7.4), 30 mM nicotinamide and 2.5 mM MgCl2]. The cells were crashed by means of ultrasonication (for 30 seconds, twice). The sonicate thus obtained was subjected to centrifugation for 20 minutes (4° C.) with 10000×g. The supernatant layer was subjected to further centrifugation for 90 minutes (4° C.) with 105000×g. The sediment was then suspended in an ice-cooled 100 mM potassium phosphate buffer (pH 7.4), which was again subjected to centrifugation for 90 minutes (4° C.) with 105000×g. This fraction was suspended in an ice-cooled 100 mM potassium phosphate buffer solution (pH 7.4) (about 4 mg/ml protein concentration). This suspension was used as the enzyme solution.

Structure (SMILES) | IC50 (squalene synthetase) [nM] | melting point [°C]
COc1cccc([C@H]2O[C@H](CC(=O)N3CCC(O)(C(=O)O)CC3)C(=O)N(CC(C)(C)C)c3ccc(Cl)cc32)c1OC [Compound 4-19] | 18 | 156 to 159
COc1cccc([C@H]2O[C@H](CC(=O)N3CCC(C(=O)NS(C)(=O)=O)CC3)C(=O)N(CC(C)(C)C)c3ccc(Cl)cc32)c1OC [Compound 18] | 15 | 187 to 189
COc1cccc([C@H]2O[C@H](CC(=O)N[C@H](C(=O)O)C(C)C)C(=O)N(CC(C)(C)C)c3ccc(Cl)cc32)c1OC [Compound 4-29] | 15 | 129 to 132
COc1cccc([C@H]2O[C@H](CC(=O)N3CCC(CP(=O)(O)O)CC3)C(=O)N(CC(C)(C)C)c3ccc(Cl)cc32)c1OC [Compound 23, N-[(3R,5S)-7-chloro-5-(2,3-dimethoxyphenyl)-1-neopentyl-2-oxo-1,2,3,5-tetrahydro-4,1-benzoxazepine-3-acetyl]-4-phosphonomethylpiperidine] | 12 | 174 to 175
COc1cccc([C@H]2O[C@H](CC(=O)N[C@@H](CC(C)C)C(=O)O)C(=O)N(CC(C)(C)C)c3ccc(Cl)cc32)c1OC [Compound 4-30] | 12 | 87 to 92
COc1cccc([C@H]2O[C@H](CC(=O)N[C@@H](CC(=O)O)C(=O)O)C(=O)N(CC(C)(C)C)c3ccc(Cl)cc32)c1OC [Compound 4-10] | 11 | 145 to 150
COc1cccc([C@H]2O[C@H](CC(=O)N[C@@H](Cc3ccc(O)cc3)C(=O)O)C(=O)N(CC(C)(C)C)c3ccc(Cl)cc32)c1OC [Compound 4-26] | 15 | 160 to 162
COc1cccc([C@H]2O[C@H](CC(=O)N3CCC(CCc4nnn[nH]4)CC3)C(=O)N(CC(C)(C)C)c3ccc(Cl)cc32)c1OC [Compound 25, 5-[2-[N-[(3R,5S)-7-chloro-5-(2,3-dimethoxyphenyl)-1-neopentyl-2-oxo-1,2,3,5-tetrahydro-4,1-benzoxazepine-3-acetyl]piperidin-4-yl]ethyl]1H(or 3H)-tetrazole] | 29 | 155 to 158
COc1cccc([C@H]2O[C@H](CC(=O)NS(C)(=O)=O)C(=O)N(CC(C)(C)CO)c3ccc(Cl)cc32)c1OC [Compound 19, (3R,5S)-N-methylsulfonyl-7-chloro-5-(2,3-dimethoxyphenyl)-1-(3-hydroxy-2,2-dimethylpropyl)-2-oxo-1,2,3,5-tetrahydro-4,1-benzoxazepine-3-acetamide] | 32 | 221 to 223
COc1cccc([C@H]2O[C@H](CC(=O)NCC(O)CC(=O)O)C(=O)N(CC(C)(C)C)c3ccc(Cl)cc32)c1OC (stereo partly drawn) [Compound 4-24] | 14 | 122 to 124
COc1cccc([C@H]2O[C@H](CC(=O)N[C@@H](CCC(=O)O)C(=O)O)C(=O)N(CC(C)(C)C)c3ccc(Cl)cc32)c1OC [Compound 4-9] | 11 | 152 to 155
COc1cccc([C@H]2O[C@H](CC(=O)N(C)CC(=O)O)C(=O)N(CC(C)(C)C)c3ccc(Cl)cc32)c1OC [Compound 4-12] | 11 | 134 to 136
COc1cccc([C@H]2O[C@H](CC(=O)N3CCC(O)(CC(=O)O)CC3)C(=O)N(CC(C)(C)C)c3ccc(Cl)cc32)c1OC [Compound 4-20] | 17 | 163 to 166
COc1cccc([C@H]2O[C@H](CC(=O)N3CCC(=CC(=O)O)CC3)C(=O)N(CC(C)(C)C)c3ccc(Cl)cc32)c1OC [Compound 4-18] | 18 | 228 to 230
COc1cccc([C@H]2O[C@H](CC(=O)N3CCC(CC(=O)NS(C)(=O)=O)CC3)C(=O)N(CC(C)(C)CO)c3ccc(Cl)cc32)c1OC [Compound 21, N-methylsulfonyl-[N-[(3R,5S)-7-chloro-5-(2,3-dimethoxyphenyl)-1-(3-hydroxy-2,2-dimethylpropyl)-2-oxo-1,2,3,5-tetrahydro-4,1-benzoxazepine-3-acetyl]piperidine]-4-acetamide] | 26 | 175 to 180
